Measured values from patent US20250085300A1, “STABILITY-ENHANCING COMPOSITIONS AND METHODS OF PREPARING COMPOUNDS” (FOGHORN THERAPEUTICS INC., priority 2021, published 2025).
Entries after “also recorded” stand apart in the source; their conditions may differ.

Tests used:
[1] = biological target: T1, Nanoluciferase-BRD9 fusion protein (Homo sapiens, UniProt Q9H8M2); assay: SYO1 BRD9 NanoLuc degradation assay; format: cell-based; conditions: 6 hours
T1 construct: expressed in transfected cells
Description: Procedure: A stable SYO-1 cell line expressing 3×FLAG-NLuc-BRD9 was generated. On day 0 cells were seeded in 30 μL media into each well of 384-well cell culture plates. The seeding density was 8000 cells/well. On day 1, cells were treated with 30 nL DMSO or 30 nL of 3-fold serially DMSO-diluted compounds (10 points in duplicates with 1 μM as final top dose). Subsequently plates were incubated for 6 hours in a standard tissue culture incubator and equilibrated at room temperature for 15 minutes. Nanoluciferase activity was measured by adding 15 μL of freshly prepared Nano-Glo Luciferase Assay Reagent (Promega N1130), shaking the plates for 10 minutes and reading the bioluminescence using an EnVision reader.
Results: The Inhibition % was calculated using the following formula: % Inhibition=100×(LumHC−LumSample)/(LumHC−LumLC). DMSO treated cells are employed as High Control (HC) and 1 μM of a known BRD9 degrader standard treated cells are employed as Low Control (LC).

[2] = biological target: T2, BRD9 (Homo sapiens, UniProt Q9H8M2); assay: BRD9 western blot in synovial sarcoma tumors in vivo (Example 11); parameters: species or system mice; conditions: 1 mg/kg i.p. for 4 weeks
T2 construct: Tumors were lysed with 1×RIPA lysis buffer; from tissue; host or cells: SYO-1 xenograft tumours from BALB/c Nude mice
T2 sequence (Q9H8M2 1-597): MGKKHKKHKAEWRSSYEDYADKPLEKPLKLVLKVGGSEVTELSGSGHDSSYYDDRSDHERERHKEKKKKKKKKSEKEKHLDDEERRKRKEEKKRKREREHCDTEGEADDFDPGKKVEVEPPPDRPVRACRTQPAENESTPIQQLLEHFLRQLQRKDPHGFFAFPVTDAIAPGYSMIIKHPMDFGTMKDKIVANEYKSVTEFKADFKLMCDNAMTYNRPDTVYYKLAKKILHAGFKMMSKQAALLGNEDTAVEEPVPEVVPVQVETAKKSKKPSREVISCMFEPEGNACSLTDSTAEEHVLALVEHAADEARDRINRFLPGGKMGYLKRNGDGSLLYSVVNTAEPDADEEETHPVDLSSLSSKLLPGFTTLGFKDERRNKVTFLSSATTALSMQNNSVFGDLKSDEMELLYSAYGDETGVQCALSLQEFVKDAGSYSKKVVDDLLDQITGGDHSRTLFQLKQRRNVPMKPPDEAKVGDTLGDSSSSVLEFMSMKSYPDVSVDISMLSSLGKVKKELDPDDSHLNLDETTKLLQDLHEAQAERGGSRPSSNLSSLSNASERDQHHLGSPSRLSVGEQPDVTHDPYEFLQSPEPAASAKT
Description: Method: Mice were treated with D1, 1 mg/kg, i.p. for 4 weeks. Mice were then euthanized, and tumors were collected at 8 hours, 72 hours, and 168 hours post last dose. Tumors were lysed with 1x RIPA lysis buffer (Boston BioProducts, BP-115D) with protease and phosphatase protein inhibitor (Roche Applied Science #04906837001 & 05892791001). Equal amounts of lysate (30 μg) were loaded in 4-12% Bis-Tris Midi Protein Gels in 1×MOPS buffer; samples ran at 120 V for 120 minutes. Protein was transferred to membrane with TransBlot at 250 mA for 150 minutes, and then membranes were blocked with Odyssey blocking buffer for 1 hour at room temperature. Membranes were hybridized overnight in cold room with primary antibodies. Images acquired using Li-COR imaging system (Li-COR Biotechnology, Lincoln, Nebraska).

[3] = system: synovial sarcoma cell lines (SYO1, Yamato, HS-SY-II, and ASKA); assay: Growth of synovial sarcoma cell lines (Example 2: IncuCyte confluency, crystal violet, colonies); format: cell-based; conditions: 1 μM or indicated concentrations
Description: (§1) Cells were treated with DMSO or the BRD9 degrader, Compound 1, at indicated concentrations, and proliferation was monitored from day 7 to day 14 by measuring confluency over time using an IncuCyte live cell analysis system (FIG. 4). Growth medium and compounds were refreshed every 3-4 days.
(§2) Cells were seeded into 12-well plates and treated with DMSO, 1 μM BRD9 inhibitor, Compound 2 (also known as BI-7273, see Martin et al, J Med Chem. 59 (10): 4462-4475 (2016); see structure of compound 2 below), or 1 μM BRD9 degrader, Compound 1.
(§3) The number of cells was optimized for each cell line. Growth medium and compounds were refreshed every 3-5 days. SYO1, Yamato, A549, 293T and HS-SY-II cells were fixed and stained at day 11. ASKA cells were fixed and stained at day 23. Staining was done by incubation with crystal violet solution (0.5 g Crystal Violet, 27 ml 37% Formaldehyde, 100 mL 10×PBS, 10 mL Methanol, 863 dH20 to 1 L) for 30 min followed by 3×washes with water and drying the plates for at least 24 h at room temperature. Subsequently plates were scanned on an Odyssey CLx Imaging system (FIG. 5).
(§4) Cells were seeded into 96-well ultra-low cluster plate (Costar, #7007) in 200 μL complete media and treated at day 2 with DMSO, Staurosporin, or BRD9 degrader, Compound 1, at indicated doses (FIG. 2C). Media and compounds were changed every 5 d and cell colonies were imaged at day 14.

[4] = system: non-synovial control cancer cell lines (293T, A549, G401); assay: Growth of non-synovial control cancer cell lines (Example 2); format: cell-based
Description: as §1, §2, §3, §4

[5] = system: synovial sarcoma cell lines (SYO1, HS-SY-II, and ASKA); assay: Growth of synovial sarcoma cell lines, crystal violet day 14 (Example 3); format: cell-based; conditions: daily treatment
Description: (§5) Procedure: Cells were seeded into 6-well or 12-well plates and were treated daily with a BRD9 degrader (Compound 1), a bromo-domain BRD9 binder (Compound 2), E3 ligase binder (lenalidomide), DMSO, or staurosporin (positive control for cell killing), at indicated concentrations. The number of cells was optimized for each cell line. Growth media was refreshed every 5 days. By day 14, medium was removed, cells were washed with PBS, and stained using 500 μL of 0.005% (w/v) crystal violet solution in 25% (v/v) methanol for at least 1 hour at room temperature. Subsequently plates were scanned on an Odyssey CLx Imaging system.

[6] = system: non-synovial control cancer cell lines (RD, HCT116, and Calu6); assay: Growth of non-synovial control cancer cell lines, crystal violet day 14 (Example 3); format: cell-based; conditions: daily treatment
Description: as §5

[7] = system: SYO1 cells; assay: Cell cycle analysis (Click-iT Plus EdU flow cytometry); format: cell-based; conditions: 200 nM or 1 μM, 8 or 13 days, compared to DMSO and lenalidomide
Description: (§6) Procedure: SYO1 cells were treated for 8 or 13 days with DMSO, a BRD9 degrader (Compound 1) at 200 nM or 1 μM, or an E3 ligase binder (lenalidomide) at 200 nM. Compounds were refreshed every 5 days. Cell cycle analysis was performed using the Click-iT™ Plus EdU Flow Cytometry Assay (Invitrogen). The apoptosis assay was performed using the Annexin V-FITC Apoptosis Detection Kit (Sigma A9210). Assays were performed according to the manufacturer's protocol.

[8] = system: SYO1 cells; assay: Apoptosis assay (Annexin V-FITC); format: cell-based; conditions: 200 nM or 1 μM, 8 days, compared to DMSO controls
Description: as §6

T1 sequence (Q96SW2 whole entry partner, one chain of several, the tested form may be a part): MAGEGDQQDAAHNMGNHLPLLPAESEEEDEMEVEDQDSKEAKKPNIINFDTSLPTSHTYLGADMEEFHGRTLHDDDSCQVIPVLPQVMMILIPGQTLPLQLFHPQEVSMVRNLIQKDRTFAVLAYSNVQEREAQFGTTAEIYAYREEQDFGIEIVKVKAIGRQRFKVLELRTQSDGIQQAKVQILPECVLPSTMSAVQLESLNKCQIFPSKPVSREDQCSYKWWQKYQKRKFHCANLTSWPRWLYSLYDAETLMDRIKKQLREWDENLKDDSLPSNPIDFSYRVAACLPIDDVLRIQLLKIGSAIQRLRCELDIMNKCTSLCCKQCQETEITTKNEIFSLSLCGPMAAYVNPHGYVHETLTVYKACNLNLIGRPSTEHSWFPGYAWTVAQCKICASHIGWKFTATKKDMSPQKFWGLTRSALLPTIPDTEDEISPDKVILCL

With COc1cc(-c2cn(C)c(=O)c3cnc(N4CCC4)cc23)cc(OC)c1CN1CCC(CN2CCC3(CC2)CN(c2ccc4c(c2)C(=O)N(C2CCC(=O)NC2=O)C4)C3)CC1 (racemic) [Compound D1, 3-[6-(7-[[1-([4-[6-(azetidin-1-yl)-2-methyl-1-oxo-2,7-naphthyridin-4-yl]-2,6-dimethoxyphenyl]methyl)piperidin-4-yl]methyl]-2,7-diazaspiro[3.5]nonan-2-yl)-1-oxo-3H-isoindol-2-yl]piperidine-2,6-dione] the IC50 [1] was 0.13 nM, the “time after dose with complete degradation of BRD9” value [2] was “up to 168 hours” and the “BRD9 level in tumor (western blot)” value ([2]; tumors 8, 72, 168 hours post last dose) was “complete degradation”.
In the case of COc1cc(-c2cn(C)c(=O)c3cnccc23)cc(OC)c1CN(C)CC(=O)NCCOCCOCCNc1cccc2c1C(=O)N(C1CCC(=O)NC1=O)C2=O (stereo not shown) [Compound 1], the “inhibition of cell growth” value [3] is reported as “inhibition of the growth of the cells”, the “inhibition of cell growth” value [4] is reported as “does not result in inhibition of the growth” and the “inhibition of cell growth” value [5] is reported as “inhibition of the growth of the cells; also recorded: most significant growth inhibition”. For the same compound, the “inhibition of cell growth” value [6] was “did not result in inhibition of the growth”, the “numbers of cells in the S-phase of the cell cycle” value [7] was “reduced numbers of cells in the S-phase” and the “numbers of early- and late-apoptotic cells” value [8] was “increased numbers of early- and late-apoptotic cells”.
With COc1cc(-c2cn(C)c(=O)c3cnccc23)cc(OC)c1CN(C)C [Compound 2] the “inhibition of cell growth” value [3] was “inhibition of the growth of the cells”, the “inhibition of cell growth” value [4] was “does not result in inhibition of the growth” and the “inhibition of cell growth” value [5] was “inhibition of the growth of the cells”. The “inhibition of cell growth” value [6] was “did not result in inhibition of the growth”.
